Where “and” joins values, the source holds several entries; their conditions need not be identical. Equal entries are not always repeated. Toxic doses and inconclusive results are not listed.

This assay relates to BDF1 mice, P388 leukemia ip, median survival T/C. In words: NCI In Vivo Anticancer Drug Screen. Data for tumor model P388 Leukemia (intraperitoneal) in B6D2F1 (BDF1) mice. Conditions: endpoint: median survival time, higher = longer survival. The procedure, abridged: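 Compound-treated tumour-bearing mice were compared with vehicle-treated controls. Survival was recorded, and the value is the treated-group measurement divided by the control-group measurement (T/C).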

[1] abbreviates: dose: 50.0 mg/kg/injection, schedule: Q01DX009 (ip), vehicle: saline with Tween-80.
The mark [2] stands for this setting: dose: 100.0 mg/kg/injection, schedule: Q01DX009 (ip), vehicle: saline with Tween-80.
Setting [3] is: dose: 200.0 mg/kg/injection, schedule: Q01DX009 (ip), vehicle: saline with Tween-80.
Setting [4] is: dose: 100.0 mg/kg/injection, schedule: Q01DX009 (ip), vehicle: Klucel (hydroxypropylcellulose) (HPC).
Setting [5] is: dose: 400.0 mg/kg/injection, schedule: Q01DX009 (ip), vehicle: Klucel (hydroxypropylcellulose) (HPC).

With `CN1CCC(=C(C#N)C#N)CC1`, the T/C (dose: 25.0 mg/kg/injection, schedule: Q04DX003 (ip), vehicle: saline) is 95 % of control; the T/C (dose: 50.0 mg/kg/injection, schedule: Q04DX003 (ip), vehicle: saline) was 100 % of control; the T/C (dose: 100.0 mg/kg/injection, schedule: Q04DX003 (ip), vehicle: saline) was 100 % of control.
Regarding `O=C1CN(Cc2ccc3c(c2)OCO3)NO1`, the T/C was 113 % of control (dose: 25.0 mg/kg/injection, schedule: Q01DX009 (ip), vehicle: saline with Tween-80); 106 % of control under setting [1]; 123 % of control under setting [2]; 115 % of control under setting [3].
Turning to `CC(=O)C1CCC=C2C1CC1CC2C1(C)C` (stereo not drawn), the T/C by setting is: (dose: 100.0 mg/kg/injection, schedule: Q04DX003 (ip), vehicle: Klucel (hydroxypropylcellulose) (HPC)) 100 % of control; (dose: 200.0 mg/kg/injection, schedule: Q04DX003 (ip), vehicle: Klucel (hydroxypropylcellulose) (HPC)) 109 % of control; (dose: 400.0 mg/kg/injection, schedule: Q04DX003 (ip), vehicle: Klucel (hydroxypropylcellulose) (HPC)) 104 % of control.
For the compound `CC1CC(C)(O)CC(C(O)CC2CC(=O)NC(=O)C2)C1=O` (stereo not drawn), the T/C reads like this: (dose: 0.4 mg/kg/injection, schedule: Q01DX010 (ip), vehicle: saline) 181 % of control; (dose: 0.5 mg/kg/injection, schedule: Q04DX003 (ip), vehicle: saline) 111 % of control; (dose: 0.8 mg/kg/injection, schedule: Q01DX010 (ip), vehicle: saline) 90 % of control; (dose: 1.2 mg/kg/injection, schedule: Q04DX003 (ip), vehicle: saline) 123 % of control; (dose: 1.3 mg/kg/injection, schedule: Q01DX001 (sc), vehicle: saline) 118 % of control; (dose: 2.0 mg/kg/injection, schedule: Q04DX003 (ip), vehicle: saline) 161 % of control. Also, the T/C is, setting by setting: (dose: 2.16 mg/kg/injection, schedule: Q01DX001 (ip), vehicle: saline) 116 % of control; (dose: 2.16 mg/kg/injection, schedule: Q01DX001 (sc), vehicle: saline) 119 % of control; (dose: 3.33 mg/kg/injection, schedule: Q04DX003 (ip), vehicle: saline) 92 % of control; (dose: 3.6 mg/kg/injection, schedule: Q01DX001 (ip), vehicle: saline) 114 % of control; (dose: 3.6 mg/kg/injection, schedule: Q01DX001 (sc), vehicle: saline) 118 % of control; (dose: 3.6 mg/kg/injection, schedule: Q04DX003 (ip), vehicle: saline) 107 % of control. Also, the T/C was 116 % of control (dose: 6.0 mg/kg/injection, schedule: Q01DX001 (ip), vehicle: saline); 113 % of control (dose: 6.0 mg/kg/injection, schedule: Q01DX001 (sc), vehicle: saline); 113 % of control (dose: 10.0 mg/kg/injection, schedule: Q01DX001 (sc), vehicle: saline); 155 % of control and 170 % of control (dose: 288.0 micrograms/kg/injection, schedule: Q01DX009 (ip), vehicle: saline); 116 % of control (dose: 467.0 micrograms/kg/injection, schedule: Q04DX003 (sc), vehicle: saline); 177 % of control (dose: 480.0 micrograms/kg/injection, schedule: Q01DX009 (ip), vehicle: saline). The T/C (dose: 778.0 micrograms/kg/injection, schedule: Q04DX003 (ip), vehicle: saline) is 119 % of control; the T/C (dose: 778.0 micrograms/kg/injection, schedule: Q04DX003 (sc), vehicle: saline) was 123 % of control; the T/C (dose: 800.0 micrograms/kg/injection, schedule: Q01DX009 (ip), vehicle: saline) is 109 % of control; the T/C (dose: 3600.0 micrograms/kg/injection, schedule: Q04DX003 (ip), vehicle: saline) was 92 % of control.
Consider `Clc1ccc(-c2nc(-c3ccccc3)c(-c3ccccc3)o2)cc1`, for which the T/C under setting [1] was 100 % of control, the T/C under setting [2] was 111 % of control and the T/C under setting [3] was 116 % of control.
Consider `CCC(=O)NC1=CC(=O)c2ccccc2C1=O`, for which the T/C is 109 % of control (dose: 12.5 mg/kg/injection, schedule: Q01DX009 (ip), vehicle: Klucel (hydroxypropylcellulose) (HPC)); 109 % of control (dose: 25.0 mg/kg/injection, schedule: Q01DX009 (ip), vehicle: Klucel (hydroxypropylcellulose) (HPC)); 122 % of control (dose: 50.0 mg/kg/injection, schedule: Q01DX009 (ip), vehicle: Klucel (hydroxypropylcellulose) (HPC)).
With `COc1ccc2c(c1OC)C(=O)OC2(O)C1=NCCc2cc3c(cc21)OCO3` (stereo not drawn), the T/C is, setting by setting: (dose: 50.0 mg/kg/injection, schedule: Q01DX005 (ip), vehicle: saline with Tween-80) 111 % of control; (dose: 100.0 mg/kg/injection, schedule: Q01DX005 (ip), vehicle: saline with Tween-80) 98 % of control; (dose: 200.0 mg/kg/injection, schedule: Q01DX005 (ip), vehicle: saline with Tween-80) 109 % of control.
For `N=C(Oc1ccccc1)c1ccccc1`, the T/C by setting is: under setting [1], 100 % of control; under setting [2], 102 % of control; under setting [3], 102 % of control.
Consider `O=C(CCCl)N1CCN(C(=O)CCCl)CC1`, for which the T/C was 104 % of control (dose: 66.0 mg/kg/injection, schedule: Q01DX009 (ip), vehicle: Klucel (hydroxypropylcellulose) (HPC)); 90 % of control under setting [4]; 116 % of control (dose: 100.0 mg/kg/injection, schedule: Q04DX003 (ip), vehicle: saline sonified); 113 % of control (dose: 150.0 mg/kg/injection, schedule: Q01DX009 (ip), vehicle: Klucel (hydroxypropylcellulose) (HPC)); 108 % of control (dose: 200.0 mg/kg/injection, schedule: Q04DX003 (ip), vehicle: saline sonified); 95 % of control under setting [5]. Further, where the note is “dose: 400.0 mg/kg/injection, schedule: Q04DX003 (ip), vehicle: saline sonified”, the T/C was 120 % of control.
In the case of `CS(=O)(=O)OCCC(=O)N1CCN(C(=O)CCOS(C)(=O)=O)CC1`, the T/C by setting is: (dose: 11.2 mg/kg/injection, schedule: Q01DX010 (ip), vehicle: saline) 150 % of control; (dose: 22.5 mg/kg/injection, schedule: Q01DX010 (ip), vehicle: saline) 163 % of control; (dose: 45.0 mg/kg/injection, schedule: Q01DX010 (ip), vehicle: saline) 150 % of control; (dose: 90.0 mg/kg/injection, schedule: Q01DX010 (ip), vehicle: saline) 250 % of control.
`CS(=O)(=O)CC(O)(c1ccc(Cl)cc1)c1ccccn1` (stereo not drawn): the T/C under setting [1] was 91 % of control, the T/C under setting [2] is 91 % of control and the T/C under setting [3] is 97 % of control.
Consider `CCCCCCCCC[N+]12CC[N+](CCCCCCCCC)(CC1)CC2`, for which the T/C was 101 % of control (dose: 3.13 mg/kg/injection, schedule: Q01DX009 (ip), vehicle: saline); 97 % of control (dose: 6.25 mg/kg/injection, schedule: Q01DX009 (ip), vehicle: saline); 98 % of control (dose: 12.5 mg/kg/injection, schedule: Q01DX009 (ip), vehicle: saline).
As to `CCC(C)NC(=S)NN` (stereo not drawn), the T/C (dose: 10.0 mg/kg/injection, schedule: Q01DX009 (ip), vehicle: saline with Tween-80) is 95 % of control; the T/C (dose: 20.0 mg/kg/injection, schedule: Q01DX009 (ip), vehicle: saline with Tween-80) was 100 % of control; the T/C (dose: 40.0 mg/kg/injection, schedule: Q01DX009 (ip), vehicle: saline with Tween-80) is 95 % of control.
Consider `CC(C)(O)c1cnc(OCc2ccccc2)nc1OCc1ccccc1`, for which the T/C reads like this: (dose: 100.0 mg/kg/injection, schedule: Q01DX001 (ip), vehicle: Klucel (hydroxypropylcellulose) (HPC)) 109 % of control; under setting [4], 95 % of control; (dose: 200.0 mg/kg/injection, schedule: Q01DX001 (ip), vehicle: Klucel (hydroxypropylcellulose) (HPC)) 104 % of control; (dose: 200.0 mg/kg/injection, schedule: Q01DX009 (ip), vehicle: Klucel (hydroxypropylcellulose) (HPC)) 91 % of control; (dose: 400.0 mg/kg/injection, schedule: Q01DX001 (ip), vehicle: Klucel (hydroxypropylcellulose) (HPC)) 95 % of control; under setting [5], 86 % of control.
Regarding `Nc1cc(=O)[nH][nH]1`, the T/C was 104 % of control under setting [2]; 109 % of control under setting [3]; 122 % of control (dose: 400.0 mg/kg/injection, schedule: Q01DX009 (ip), vehicle: saline with Tween-80).

The record behind these values is PubChem BioAssay AID328 (DTP/NCI, 2004).
